Patent publication US11230538B2, “Herbicides” (SYNGENTA PARTICIPATIONS AG, priority 2016, dated 2022)

How the values were obtained:
Assay type in all cases: in vivo
[1] = test system: Alopecurus myosuroides (ALOMY); experiment: B1 Pre-emergence herbicidal activity; parameters: key: 5=total damage to plant; 0=no damage to plant; settings: pre-emergence application, evaluated after 13 days
Description: (§1) Seeds of a variety of test species were sown in standard soil in pots: Triticum aestivium (TRZAW), Avena fatua (AVEFA), Alopecurus myosuroides (ALOMY), Echinochloa crus-galli (ECHCG), Lolium perenne (LOLPE), Zea Mays (ZEAMX), Abutilon theophrasti (ABUTH), Amaranthus retroflexus (AMARE) and Setaria fabenr (SETFA). After cultivation for one day (pre-emergence) under controlled conditions in a glasshouse (at 24/16° C., day/night; 14 hours light; 65% humidity), the plants were sprayed with an aqueous spray solution derived from the formulation of the technical active ingredient in acetone I water (50:50) solution containing 0.5% Tween 20 (polyoxyethelyene sorbitan monolaurate, CAS RN 9005-64-5). The test plants were then grown in a glasshouse under controlled conditions (at 24/16° C., day/night; 14 hours light; 65% humidity) and watered twice daily. After 13 days, the test was evaluated (5=total damage to plant; 0=no damage to plant).

Avena fatua (AVEFA) = experiment: B1 Pre-emergence herbicidal activity; parameters: key: 5=total damage to plant; 0=no damage to plant; settings: pre-emergence application, evaluated after 13 days
Description: as §1

[2] = test system: Triticum aestivium (TRZAW); experiment: B1 Pre-emergence herbicidal activity; parameters: key: 5=total damage to plant; 0=no damage to plant; settings: pre-emergence application, evaluated after 13 days
Description: as §1

[3] = test system: Echinochloa crus-galli (ECHCG); experiment: B1 Pre-emergence herbicidal activity; parameters: key to Pre-emergence herbicidal activity, ECHCG (damage score 0-5): 5=total damage to plant; 0=no damage to plant; settings: pre-emergence application, evaluated after 13 days
Description: as §1

Lolium perenne (LOLPE) = experiment: B1 Pre-emergence herbicidal activity; parameters: key to Pre-emergence herbicidal activity, LOLPE (damage score 0-5): 5=total damage to plant; 0=no damage to plant; settings: pre-emergence application, evaluated after 13 days
Description: as §1

Setaria fabenr (SETFA) = experiment: B1 Pre-emergence herbicidal activity; parameters: key to Pre-emergence herbicidal activity, SETFA (damage score 0-5): 5=total damage to plant; 0=no damage to plant; settings: pre-emergence application, evaluated after 13 days
Description: as §1

[4] = test system: Echinochloa crus-galli (ECHCG); experiment: B2 Post-emergence herbicidal activity; settings: post-emergence application, evaluated after 13 days
Description: (§2) Seeds of a variety of test species were sown in standard soil in pots: Triticum aestivium (TRZAW), Avena fatua (AVEFA), Alopecurus myosuroides (ALOMY), Echinochloa crus-galli (ECHCG), Lolium perenne (LOLPE), Zea Mays (ZEAMX), Abutilon theophrasti (ABUTH), Amaranthus retroflexus (AMARE) and Setaria fabenri (SETFA). After 8 days cultivation (post-emergence) under controlled conditions in a glasshouse (at 24/16° C., day/night; 14 hours light; 65% humidity), the plants were sprayed with an aqueous spray solution derived from the formulation of the technical active ingredient in acetone I water (50:50) solution containing 0.5% Tween 20 (polyoxyethelyene sorbitan monolaurate, CAS RN 9005-64-5). The test plants were then grown in a glasshouse under controlled conditions (at 24/16° C., day/night; 14 hours light; 65% humidity) and watered twice daily. After 13 days, the test was evaluated (5=total damage to plant; 0=no damage to plant).

[5] = test system: Alopecurus myosuroides (ALOMY); experiment: B2 Post-emergence herbicidal activity; parameters: key: 5=total damage to plant; 0=no damage to plant; settings: post-emergence application, evaluated after 13 days
Description: as §2

Setaria fabenri (SETFA) = experiment: B2 Post-emergence herbicidal activity; parameters: key: 5=total damage to plant; 0=no damage to plant; settings: post-emergence application, evaluated after 13 days
Description: as §2

[6] = test system: Triticum aestivium (TRZAW); experiment: B2 Post-emergence herbicidal activity; parameters: key: 5=total damage to plant; 0=no damage to plant; settings: post-emergence application, evaluated after 13 days
Description: as §2

SMILES | Pre-emergence herbicidal activity, ALOMY (damage score 0-5) ([1]; rate 1000 g/ha) | Pre-emergence herbicidal activity, AVEFA (damage score 0-5) (Avena fatua (AVEFA); rate 1000 g/ha) | Pre-emergence herbicidal activity, TRAZW (damage score 0-5) ([2]; rate 1000 g/ha) | Pre-emergence herbicidal activity, ECHCG (damage score 0-5) ([3]; rate 1000 g/ha) | Pre-emergence herbicidal activity, LOLPE (damage score 0-5) (Lolium perenne (LOLPE); rate 1000 g/ha) | Pre-emergence herbicidal activity, SETFA (damage score 0-5) (Setaria fabenr (SETFA); rate 1000 g/ha) | Post-emergence herbicidal activity, ECHCG (damage score 0-5) ([4]; rate 1000 g/ha) | Post-emergence herbicidal activity, ALOMY (damage score 0-5) ([5]; rate 1000 g/ha) | Post-emergence herbicidal activity, SETFA (damage score 0-5) (Setaria fabenri (SETFA); rate 1000 g/ha) | Post-emergence herbicidal activity, TRAZW (damage score 0-5) ([6]; rate 1000 g/ha) | Pre-emergence herbicidal activity, ALOMY (damage score 0-5) ([1]; rate 250 g/ha) | Pre-emergence herbicidal activity, AVEFA (damage score 0-5) (Avena fatua (AVEFA); rate 250 g/ha) | Pre-emergence herbicidal activity, TRAZW (damage score 0-5) ([2]; rate 250 g/ha) | Pre-emergence herbicidal activity, ECHCG (damage score 0-5) ([3]; rate 250 g/ha) | Pre-emergence herbicidal activity, LOLPE (damage score 0-5) (Lolium perenne (LOLPE); rate 250 g/ha) | Pre-emergence herbicidal activity, SETFA (damage score 0-5) (Setaria fabenr (SETFA); rate 250 g/ha) | Post-emergence herbicidal activity, ECHCG (damage score 0-5) ([4]; rate 250 g/ha) | Post-emergence herbicidal activity, ALOMY (damage score 0-5) ([5]; rate 250 g/ha) | Post-emergence herbicidal activity, SETFA (damage score 0-5) (Setaria fabenri (SETFA); rate 250 g/ha) | Post-emergence herbicidal activity, TRAZW (damage score 0-5) ([6]; rate 250 g/ha)
COCC(=O)N(CC(=O)N(C)C)c1ccc(-c2cncc(F)c2)nc1C(F)(F)F [Compound C84] | 0 | 1 | 0 | 2 | 1 | 5 | 3 | 1 | 4 | 0 |  |  |  |  |  |  |  |  |  | 
CC(C)CN(C(=O)C(C)C)c1ccc(-c2cncc(F)c2)nc1C(F)(F)F [Compound C86] | 0 | 0 | 0 | 0 | 0 | 1 | 1 | 0 | 1 | 0 |  |  |  |  |  |  |  |  |  | 
CC(C)C(=O)N(CC1CC1)c1ccc(-c2cncc(F)c2)nc1C(F)(F)F [Compound C87] | 0 | 0 | 0 | 2 | 0 | 5 | 3 | 0 | 4 | 0 |  |  |  |  |  |  |  |  |  | 
CC(C)C(=O)N(COCC(C)(C)C)c1ccc(-c2cncc(F)c2)nc1C(F)(F)F [Compound C89] | 0 | 1 | 0 | 3 | 0 | 4 | 4 | 0 | 4 | 0 |  |  |  |  |  |  |  |  |  | 
CCC(=O)N(CCOC)c1ccc(-c2cncc(F)c2)nc1C(F)(F)F [Compound C96] | 1 | 1 | 0 | 3 | 0 | 5 | 3 | 0 | 4 | 0 |  |  |  |  |  |  |  |  |  | 
CCC(=O)N(CC(C)C)c1ccc(-c2cncc(F)c2)nc1C(F)(F)F [Compound C97] | 0 | 0 | 0 | 1 | 0 | 3 | 2 | 0 | 3 | 0 |  |  |  |  |  |  |  |  |  | 
CCC(=O)N(CCSC)c1ccc(-c2cncc(F)c2)nc1C(F)(F)F [Compound C98] | 0 | 0 | 0 | 1 | 1 | 3 | 1 | 0 | 0 | 0 |  |  |  |  |  |  |  |  |  | 
CCC(=O)N(c1ccc(-c2cncc(F)c2)nc1C(F)(F)F)C(C)C [Compound C100] | 0 | 1 | 0 | 3 | 1 | 5 | 4 | 0 | 5 | 0 |  |  |  |  |  |  |  |  |  | 
CCC(=O)N(Cc1ccc(Cl)cc1)c1ccc(-c2cncc(F)c2)nc1C(F)(F)F [Compound C101] | 0 | 1 | 0 | 1 | 0 | 1 | 2 | 0 | 2 | 0 |  |  |  |  |  |  |  |  |  | 
CCC(=O)N(Cc1cnc(Cl)s1)c1ccc(-c2cncc(F)c2)nc1C(F)(F)F [Compound C102] | 0 | 1 | 0 | 2 | 0 | 4 | 2 | 0 | 2 | 0 |  |  |  |  |  |  |  |  |  | 
CSCCN(C(=O)c1ccccc1)c1ccc(-c2cncc(F)c2)nc1C(F)(F)F [Compound C104] |  |  |  |  |  |  |  |  |  |  | 0 | 0 | 0 | 0 | 0 | 3 | 1 | 0 | 2 | 0
COCC(=O)N(CC=C(C)C)c1ccc(-c2cncc(F)c2)nc1C(F)(F)F [Compound C106] | 0 | 2 | 0 | 3 | 1 | 4 | 4 | 0 | 5 | 0 |  |  |  |  |  |  |  |  |  | 
CC(C)C(=O)N(CC(=O)N(C)C)c1ccc(-c2cncc(F)c2)nc1C(F)(F)F [Compound C107] | 0 | 1 | 0 | 3 | 0 | 5 | 4 | 0 | 5 | 0 |  |  |  |  |  |  |  |  |  | 
